Laboratory results from patent publication US11931424B2, “Combination MCL-1 inhibitors with anti-body drug conjugates” (Gilead Sciences, Inc., priority 2021, dated 2024).
Structures can show the parent of a compound that is named as a salt.

How the values were obtained:
[1] = test system: panel of breast cancer cell lines; test: Compound A with targeted agents and chemotherapies, 72-hour in vitro proliferation assays; type: cell-based; conditions: 72-hour proliferation
[2] = test system: panel of haematalogical cancer cell lines; test: Compound A with BTK inhibitors, 72-hour in vitro proliferation assays; type: cell-based; conditions: combination Compound A × listed BTK inhibitor, 72-hour proliferation

CC/C(=C(\c1ccccc1)c1ccc(OCCN(C)C)cc1)c1ccccc1 [Tamoxifen Citrate]
Best CI ([1]; AU565 cell line, compound A × partner): 0.63
Best CI ([1]; BT-20 cell line, compound A × partner): 1.22
Best CI ([1]; BT-474 cell line, compound A × partner): 0.67
Best CI ([1]; BT-549 cell line, compound A × partner): 0.42
Best CI ([1]; CAL-51 cell line, compound A × partner): 1.06
Best CI ([1]; CAL-85-1 cell line, compound A × partner): 0.49
Best CI ([1]; CAL-148 cell line, compound A × partner): 0.69
Best CI ([1]; CAMA-1 cell line, compound A × partner): 0.27
Best CI ([1]; DU-4475 cell line, compound A × partner): 0.80
Best CI ([1]; EVSA-T cell line, compound A × partner): 0.68
Best CI ([1]; HCC38, compound A × partner): 0.98
Best CI ([1]; HCC70, compound A × partner): 0.50
Best CI ([1]; HCC1143, compound A × partner): 0.19
Best CI ([1]; HCC1569, compound A × partner): 0.50
Best CI ([1]; HCC1806, compound A × partner): 0.84
Best CI ([1]; HCC1937, compound A × partner): 1.02
Best CI ([1]; HCC1954, compound A × partner): 0.18
Best CI ([1]; HCC2218, compound A × partner): 0.45
Best CI ([1]; HDQ-P1, compound A × partner): 0.94
Best CI ([1]; HMC-1-8, compound A × partner): 0.58
Best CI ([1]; JIMT-1, compound A × partner): 0.38
Best CI ([1]; KPL-1, compound A × partner): 0.54
Best CI ([1]; MCF7 cells, Compound A × partner agent): 0.41
Best CI ([1]; MDA-MB-175-VII cells, Compound A × partner agent): 0.36
Best CI ([1]; MDA-MB-231 cells, Compound A × partner agent): 1.06
Best CI ([1]; MDA-MB-361 cells, Compound A × partner agent): 0.48
Best CI ([1]; MDA-MB-436 cells, Compound A × partner agent): 0.30
Best CI ([1]; MDA-MB-453 cells, Compound A × partner agent): 0.45
Best CI ([1]; MDA-MB-468 cells, Compound A × partner agent): 0.61
Best CI ([1]; SK-BR-3 cells, combination of compound A with the named agent): 0.66
Best CI ([1]; SUM159PT cells, combination of compound A with the named agent): 0.20
Best CI ([1]; T47D cells, combination of compound A with the named agent): 0.42
Best CI ([1]; ZR-75-1 cells, combination of compound A with the named agent): 0.99
Best CI ([1]; ZR-75-30 cells, combination of compound A with the named agent): 1.00

CC#CC(=O)N1CC[C@@H](n2c(=O)n(-c3ccc(Oc4ccccc4)cc3)c3c(N)ncnc32)C1 [Tirabrutinib]
Best CI ([2]; HBL-1 cells): 0.06
Best CI Level ([2]; HBL-1 cells): 60
Bliss Volume ([2]; HBL-1 cells): 3.09
HSA volume ([2]; HBL-1 cells): 8.94
Loewe Volume ([2]; HBL-1 cells): 8.17
Synergy Score ([2]; HBL-1 cells): 7.02
Best CI ([2]; OCI-Ly10 cells): 0.63
Best CI Level ([2]; OCI-Ly10 cells): 80
Bliss Volume ([2]; OCI-Ly10 cells): 0.21
HSA volume ([2]; OCI-Ly10 cells): 3.22
Loewe Volume ([2]; OCI-Ly10 cells): 1.63
Synergy Score ([2]; OCI-Ly10 cells): 2.72
Best CI ([2]; SU-DHL-2 cells): 0.42
Best CI Level ([2]; SU-DHL-2 cells): 20
Bliss Volume ([2]; SU-DHL-2 cells): 0.39
HSA volume ([2]; SU-DHL-2 cells): −0.97
Loewe Volume ([2]; SU-DHL-2 cells): 1.23
Synergy Score ([2]; SU-DHL-2 cells): 0.98
Best CI ([2]; SU-DHL-4 cells): 0.84
Best CI Level ([2]; SU-DHL-4 cells): 20
Bliss Volume ([2]; SU-DHL-4 cells): 1.52
HSA volume ([2]; SU-DHL-4 cells): −2.97
Loewe Volume ([2]; SU-DHL-4 cells): −0.81
Synergy Score ([2]; SU-DHL-4 cells): 1.10
Best CI ([2]; SU-DHL-8 cells): 0.45
Best CI Level ([2]; SU-DHL-8 cells): 20
Bliss Volume ([2]; SU-DHL-8 cells): 4.13
HSA volume ([2]; SU-DHL-8 cells): −6.01
Loewe Volume ([2]; SU-DHL-8 cells): −3.72
Synergy Score ([2]; SU-DHL-8 cells): 0.60
Best CI ([2]; TMD8 cells): 0.87
Best CI Level ([2]; TMD8 cells): 20
Bliss Volume ([2]; TMD8 cells): 1.28
HSA volume ([2]; TMD8 cells): 3.05
Loewe Volume ([2]; TMD8 cells): 1.96
Synergy Score ([2]; TMD8 cells): 2.92
Best CI ([2]; U-2932 cells): 0.62
Best CI Level ([2]; U-2932 cells): 65
Bliss Volume ([2]; U-2932 cells): 1.92
HSA volume ([2]; U-2932 cells): 4.85
Loewe Volume ([2]; U-2932 cells): 4.66
Synergy Score ([2]; U-2932 cells): 3.69
